# Tested on: second order mesenteric resistance arteries
# Experiment: Pressure myograph system, vessel lumen diameter under controlled barometric pressure
# Set-up: species or system mice
# Settings: for constriction or relaxation of vessel to drug administered in the bath: vessels immersed in Ca2+-free solution, n=7, p>0.05; for maximal increase in lumen diameter, cumulative response curve to methylcholine: doses 1 nM to 1 μM, barometric pressure PB674
# Procedure: Four-month-old male C57 mice were given access to standard chow and water ad-libitum and were housed on a 12 h-12 h light-dark cycle. Mice were euthanized through sodium pentobarbital administered interperitonially, and their mesenteries were removed and placed in freshly prepared cold physiological salt solution (10 HEPES, 5.5 glucose, 1.56 CaCl2, 4.7 KCl, 142 NaCl, 1.17 MgSO4, 1.18 KH2PO4, pH 7.5.).
# Two second order resistance arteries were dissected of surrounding connective tissue and mounted within a pressure myograph system (Living Systems Instrumentation; Burlington, Vt.). Vessels were tied onto glass cannulas with microscopic suture thread segments. Each vessel was immersed in a physiological salt solution bath, maintained at a temperature of 37° C. with the aid of a built-in temperature feedback mechanism connected to a miniature heating system. Intravascular pressure and flow were measured and alterable using pressure and flow control systems. A peristaltic pump was used to maintain specific rates of flow across the lumens vessels mounted in the pressure myograph system. To mimic physiological conditions as best as possible, the vessels were oriented as such that flow would be applied in the same direction as in vivo blood flow. The vessels were maintained at a perfusion pressure of 60 mmHg, the approximated in vivo mesentery arterial pressure of mice.
# Vessels were exposed to phenylephrine and methylcholine before the start of every protocol to ensure the vessel was intact and capable of responding to pressure and flow stimuli. In some protocols, one bath of the pressure myograph was infused with inhibitors of nitric oxide synthase and prostacyclins to inhibit the action of these two major endogenous endothelial vasodilators. This was performed in order to assess the effect of barometric pressure on mesenteric arteries isolated from the vasoactive influences of nitric oxide and prostacyclins.
# The entire myograph system was enclosed within a barometric pressure controlled chamber, capable of being sealed and pressure-controlled when necessary (FIG. 11). A control pressure was established on the pressure sensor in relation to the atmospheric pressure denoted by the meteorological service of Canada (Edmonton station). Pressure conditions PB714 and PB674 were assigned as 40 mmHg and 80 mmHg below atmospheric pressure, respectively. The conditions were maintained through a pressure apparatus.
# A pressure transducer and flow regulator coupled with a peristaltic pump mechanisms was set up so as to be manipulated from outside upon sealing the barometric pressure chamber around the myograph system. […]
# Vessel diameters and wall thicknesses were recorded with the help of a microscope-coupled micrometer. […]
Compound,constriction or relaxation of vessel to drug administered in the bath,"maximal increase in lumen diameter, cumulative response curve to methylcholine (with L-NAME and meclofenamate (FIG. 4B))","maximal increase in lumen diameter, cumulative response curve to methylcholine (without inhibitors (FIG. 4A))"
CNC[C@H](O)c1cccc(O)c1 [phenylephrine],no constriction,,
CC(=O)OC(C)C[N+](C)(C)C (stereo not shown),no constriction to phenylephrine or relaxation,133%,122%

# Reference: patent US20180221241A1, “ENHANCEMENT OF VASODILATORY FUNCTION AND LOWERING OF EFFECTIVE SYSTEMIC VASCULAR RESISTANCE” (THE GOVERNORS OF THE UNIVERSITY OF ALBERTA, priority 2015, published 2018)
